Read-outs that look alike come from different tables or passages of the source.
Experiments:
Streptococcus mitis = details: antibiotic-susceptible clinical isolate
Clostridium novyi = details: ATCC 19402
[1] = tested on: Bifidobacterium adolescentis; assay: MIC, clindamycin prodrugs; assay type: cell-based
Veillonella atypical = assay: MIC, clindamycin prodrugs; assay type: cell-based
[2] = relative bioavailability of clindamycin vs dosing clindamycin itself, male rats, mean
Procedure: Serial tail vein blood samples were subsequently collected via an indwelling cannuala into EDTA tubes containing a stabilising cocktail (including 6 mg/mL NaF) to prevent post collection enzymic hydrolysis of the prodrug.

[3] = tested on: Peptostreptococcus magnus; details: clinical isolate
Veillonella parvula = assay: MIC, clindamycin prodrugs; assay type: cell-based
Eggerthella lenta = assay: MIC, clindamycin prodrugs; assay type: cell-based
Clostridium perfringens = assay: microbe, parasite or virus in culture; assay type: cell-based; details: for MIC: Clostridium perfringens
Bifidobacterium dentium = assay: MIC, clindamycin prodrugs; assay type: cell-based
Bacteroides fragilis = assay: MIC, clindamycin prodrugs; assay type: cell-based; details: for MIC: Bacteroides fragilis
Propionibacterium acnes = assay: MIC, clindamycin prodrugs; assay type: cell-based; details: for MIC: Cutibacterium acnes
Clostridium sporogenes = assay: MIC, clindamycin prodrugs; assay type: cell-based; details: ATCC 3584
[4] = tested on: Porphyromonas endodontalis; details: clinical isolate
[5] = tested on: Prevotella melaninogenicus; assay: MIC, clindamycin prodrugs; assay type: cell-based
Streptococcus pyogenes = assay: MIC, clindamycin prodrugs; assay type: cell-based
[6] = Stability in USP simulated gastric juice; assay type: in vitro ADME; details: USP SGF pH 1.1, pepsin […], prodrug 20 μg/mL
Text: To minimize the direct inhibitory action of this drug on gastric emptying/gut motility—and resultant nausea—the prodrug should not undergo premature chemical or enzymic cleavage back to the parent drug while within the gut lumen.

Group C Streptococcus = assay: MIC, clindamycin prodrugs; assay type: cell-based
Prevotella bivia = details: ATCC 29303
[7] = tested on: Bacteroides thetaiotamicron; assay: MIC, clindamycin prodrugs; assay type: cell-based; details: for MIC: Bacteroides
Campylobacter coli = assay: MIC, clindamycin prodrugs; assay type: cell-based; details: for MIC: Campylobacter coli
Staphylococcusaureus = assay: MIC, clindamycin prodrugs; assay type: cell-based
Prevotella denticola = details: clinical isolate
Streptococcus pneumoniae = assay: MIC, clindamycin prodrugs; assay type: cell-based; details: for MIC: Streptococcus pneumoniae
Bifidobacterium longum = assay: MIC, clindamycin prodrugs; assay type: cell-based
Campylobacter jejuni = assay: MIC, clindamycin prodrugs; assay type: cell-based; details: for MIC: Campylobacter jejuni
[8] = tested on: Staphylococcus epidermidis; assay: MIC, clindamycin prodrugs; assay type: cell-based
Streptococcus oralis = details: antibiotic-susceptible clinical isolate
[9] = tested on: Staphylococcus haemolyticus; assay: MIC, clindamycin prodrugs; assay type: cell-based
Helicobacter pylori = assay: MIC, clindamycin prodrugs; assay type: cell-based; details: for MIC: Helicobacter pylori
[10] = antibiotic-susceptible clinical isolate
[11] = clinical isolate (second listed, r38)
[12] = Macrolide (MLS) resistant clinical isolate
[13] = antibiotic susceptible clinical isolate
[14] = methicillin-resistant clinical isolate
[15] = read-out: Minimum inhibitory concentration

CCCC1CC(C(=O)NC(C(C)Cl)C2OC(SC)C(OC(=O)CCCC(=O)Nc3ccc(C(=O)O)cc3)C(O)C2O)N(C)C1.O=C(O)C(F)(F)F (centres unmarked) [Clindamycin glutaryl PABA ester, Clindamycin-2-(glutaryl-PABA) ester trifluoroacetate]
8 µg/mL: Minimum inhibitory concentration (Clostridium perfringens; ATCC 13124) | Minimum inhibitory concentration (Clostridium perfringens; [10]) | Minimum inhibitory concentration (Propionibacterium acnes) | Minimum inhibitory concentration (Propionibacterium acnes; clinical isolate MIC clindamycin 0.5 mg/L) | Minimum inhibitory concentration [8, 14]
1 µg/mL: Minimum inhibitory concentration [5, 11] | Minimum inhibitory concentration (Prevotella bivia) | Minimum inhibitory concentration (Streptococcus pneumoniae; penicillin-susceptible clinical isolate)
>64 µg/mL: Minimum inhibitory concentration (Clostridium sporogenes) | Minimum inhibitory concentration (Clostridium difficile; ATCC 700057) | Minimum inhibitory concentration (Clostridium difficile; NCTC 13366 - NAP1/027) | Minimum inhibitory concentration (Clostridium difficile; [10]) | Minimum inhibitory concentration (Clostridium difficile; ribotype 002 - clinical isolate) | Minimum inhibitory concentration (Clostridium difficile; ribotype 011 - clinical isolate) | Minimum inhibitory concentration (Clostridium difficile; ribotype 027 - clinical isolate) | Minimum inhibitory concentration (Clostridium difficile; ribotype 050 - clinical isolate) | Minimum inhibitory concentration (Clostridium difficile; ribotype 176 - clinical isolate) | Minimum inhibitory concentration ([7]; ATCC 29741) | Minimum inhibitory concentration ([7]; NCTC 10582) | Minimum inhibitory concentration (Staphylococcusaureus; ATCC 43300 - methicillin-resistant type strain)
16 µg/mL: Minimum inhibitory concentration (Eggerthella lenta; ATCC 43055) | Minimum inhibitory concentration (Eggerthella lenta; clinical isolate) | Minimum inhibitory concentration (Bacteroides fragilis; clinical isolate)
64 µg/mL: Minimum inhibitory concentration [3] | Minimum inhibitory concentration (Bacteroides fragilis; ATCC 25285)
4 µg/mL: Minimum inhibitory concentration (Clostridium novyi) | Minimum inhibitory concentration (Veillonella atypical; NCTC 11830) | Minimum inhibitory concentration (Veillonella parvula; NCTC 11810) | Minimum inhibitory concentration (Streptococcus pyogenes; [12]) | Minimum inhibitory concentration (Staphylococcusaureus; ATCC 25923 - antibiotic-susceptible type strain) | Minimum inhibitory concentration (Staphylococcusaureus; ATCC 29213 - antibiotic-susceptible type strain) | Minimum inhibitory concentration (Prevotella denticola) | Minimum inhibitory concentration [8, 13] | Minimum inhibitory concentration [9, 13]
≦0.03 ug/mL: Minimum inhibitory concentration (Campylobacter coli; ATCC 33559) | Minimum inhibitory concentration (Campylobacter jejuni; ATCC 33560) | Minimum inhibitory concentration (Campylobacter jejuni; clinical isolate) | Minimum inhibitory concentration (Helicobacter pylori; ATCC 43504) | Minimum inhibitory concentration (Helicobacter pylori; clinical isolate (r56)) | Minimum inhibitory concentration (Helicobacter pylori; clinical isolate (r57)) | Minimum inhibitory concentration (Helicobacter pylori; clinical isolate (r100)) | Minimum inhibitory concentration (Helicobacter pylori; clinical isolate (r101))
51%: Frel [2] | Frel ([2]; listed as Clindamycin glutaryl PABA ethyl ester)
<1%: Simulated gastric juice (1 h, 37° C.) % active drug generated [6]
0.5 µg/mL: Minimum inhibitory concentration (Streptococcus mitis) | Minimum inhibitory concentration ([5]; clinical isolate (first listed, r37)) | Minimum inhibitory concentration (Streptococcus oralis)
0.06 µg/mL: Minimum inhibitory concentration (Campylobacter coli; clinical isolate)
2 µg/mL: Minimum inhibitory concentration ([1]; NCTC 11814) | Minimum inhibitory concentration (Bifidobacterium dentium; NCTC 11816) | Minimum inhibitory concentration (Streptococcus pyogenes; [10]) | Minimum inhibitory concentration (Group C Streptococcus; [10]) | Minimum inhibitory concentration (Streptococcus pneumoniae; ATCC 49619 antibiotic-susceptible type strain) | Minimum inhibitory concentration (Bifidobacterium longum; NCTC 11818)
0.12 µg/mL: Minimum inhibitory concentration [4]

CCC[C@@H]1C[C@@H](C(=O)N[C@@H]([C@H]2O[C@H](SC)[C@H](O)[C@@H](O)[C@H]2O)[C@H](C)Cl)N(C)C1 [Clindamycin, clindamycin, reference compound]
> 64 µg/mL: MIC (Staphylococcusaureus; read-out: Minimum inhibitory concentration, ATCC 43300 - methicillin-resistant type strain)
32 µg/mL: MIC (Clostridium sporogenes; Clostridium sporogenes, ATCC3584, read-out: Minimum inhibitory concentration)
0.5 µg/mL: MIC (Bacteroides fragilis; ATCC25285, read-out: Minimum inhibitory concentration)
≦0.03 ug/mL: Minimum inhibitory concentration [5, 11] | Minimum inhibitory concentration (Streptococcus pyogenes; [12]) | Minimum inhibitory concentration (Helicobacter pylori; clinical isolate (r56)) | Minimum inhibitory concentration (Helicobacter pylori; clinical isolate (r57)) | Minimum inhibitory concentration (Helicobacter pylori; clinical isolate (r101))
0.06 µg/mL: MIC (Veillonella atypical; Veillonella, NCTC11830, read-out: Minimum inhibitory concentration) | MIC (Clostridium perfringens; ATCC13124, read-out: Minimum inhibitory concentration) | MIC (Clostridium perfringens; [15]) | MIC (Propionibacterium acnes; read-out: Minimum inhibitory concentration, clinical isolate MIC clindamycin […]) | MIC (Campylobacter coli; [15]) | MIC (Staphylococcusaureus; read-out: Minimum inhibitory concentration, ATCC 25923 - antibiotic-susceptible type strain) | MIC (Staphylococcusaureus; read-out: Minimum inhibitory concentration, ATCC 29213 - antibiotic-susceptible type strain) | MIC ([9]; Staphylococcus haemolyticus, read-out: Minimum inhibitory concentration)
0.12 µg/mL: MIC (Bacteroides fragilis; [15]) | MIC (Propionibacterium acnes; read-out: Minimum inhibitory concentration, clinical isolate MIC clindamycin 0.5 mg/L) | MIC (Bifidobacterium longum; Bifidobacterium longum, NCTC11818, read-out: Minimum inhibitory concentration) | MIC ([8]; Staphylococcus epidermidis, read-out: Minimum inhibitory concentration) | Minimum inhibitory concentration [8, 14]
1 µg/mL: MIC ([7]; NCTC10582, read-out: Minimum inhibitory concentration)
2 µg/mL: MIC ([7]; ATCC29741, read-out: Minimum inhibitory concentration)
≤ 0.03 µg/mL: MIC ([1]; Bifidobacterium adolescentis, NCTC11814, read-out: Minimum inhibitory concentration) | MIC (Veillonella parvula; Veillonella parvula, NCTC11810, read-out: Minimum inhibitory concentration) | MIC (Bifidobacterium dentium; Bifidobacterium dentium, NCTC11816, read-out: Minimum inhibitory concentration) | MIC ([5]; Prevotella, read-out: Minimum inhibitory concentration) | MIC (Streptococcus pyogenes; Streptococcus pyogenes, read-out: Minimum inhibitory concentration) | MIC (Group C Streptococcus; Streptococcus, read-out: Minimum inhibitory concentration) | MIC (Campylobacter coli; ATCC33559, read-out: Minimum inhibitory concentration) | MIC (Streptococcus pneumoniae; ATCC49619, read-out: Minimum inhibitory concentration) | MIC (Streptococcus pneumoniae; [15]) | MIC (Campylobacter jejuni; ATCC33560, read-out: Minimum inhibitory concentration) | MIC (Campylobacter jejuni; [15]) | MIC (Helicobacter pylori; ATCC43504, read-out: Minimum inhibitory concentration) | MIC (Helicobacter pylori; [15])

Reference: patent publication US20120202756A1, “USE OF PRODRUGS TO AVOID GI MEDIATED ADVERSE EVENTS” (priority 2009, published 2012)
